Measured values from US9896434B2, “Substituted indanone compounds as GPR119 modulators for the treatment of diabetes, obesity, dyslipidemia and related disorders” (SANOFI, priority 2014, dated 2018).
pEC50: −log10 of the molar value.

biological target: T1, human GPR119 (Homo sapiens, UniProt Q8TDV5); assay: Functional cellular assay measuring GPR119-mediated cAMP release (HTRF); assay type: cell-based; conditions: HEK-293 cell line stably expressing recombinant human GPR119; cAMP response, 30 minutes at room temperature
T1 construct: expressed in transfected cells
T1 sequence (Q8TDV5 1-335): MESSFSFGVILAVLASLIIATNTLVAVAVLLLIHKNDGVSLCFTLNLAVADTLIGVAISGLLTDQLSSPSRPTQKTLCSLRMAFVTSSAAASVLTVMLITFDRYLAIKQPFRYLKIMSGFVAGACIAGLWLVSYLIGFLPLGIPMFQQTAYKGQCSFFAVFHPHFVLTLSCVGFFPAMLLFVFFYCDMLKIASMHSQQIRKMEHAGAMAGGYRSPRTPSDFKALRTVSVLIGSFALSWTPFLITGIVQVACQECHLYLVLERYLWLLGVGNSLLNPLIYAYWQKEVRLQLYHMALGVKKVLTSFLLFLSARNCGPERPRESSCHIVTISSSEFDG
Protocol: Functional Cellular Assays Measuring GPR119-Mediated cAMP Release
Compounds of the invention, which are agonists of GPR119, were characterized by functional assays measuring the cAMP response of HEK-293 cell lines stably expressing recombinant GPR119 from man, mouse or rat, or by using a hamster cell line HIT-T15 expressing GPR119 endogenously. The cAMP content was determined using a kit based on homogenous time-resolved fluorescence (HTRF) from Cisbio Corp. (cat. no. 62AM4PEC). For preparation, cells were split into T175 culture flasks and grown to near confluency in medium (DMEM/10% FCS for HEK-293 cells, and F-12K medium/10% horse serum/2.5% FCS for HIT-T15 cells, respectively). Medium was then removed and cells washed with PBS lacking calcium and magnesium ions, followed by proteinase treatment with accutase (Sigma-Aldrich, cat. no. A6964). Detached cells were washed and resuspended in assay buffer (1×HBSS; 20 mM HEPES, 0.1% BSA, 2 mM IBMX) and cellular density determined. They were then diluted to 400000 cells/mL and 25 μL-aliquots dispensed to the wells of 96-well plates. For measurement, 25 μL of test compound in assay buffer was added and incubated for 30 minutes at room temperature. After addition of HTRF reagents diluted in lysis buffer, the plates were incubated for 1 hour, followed by measuring the fluorescence ratio at 665 vs. 620 nm. Potency of the agonists was quantified by determining the concentrations that caused 50% of the maximal response/activation (EC50). See Table 4 for exemplary data obtained using the cell line expressing human GPR119.

Structure (SMILES) | pEC50
COC(=O)C[C@@H]1CC(=O)c2cc(N3CC[C@@H](Oc4ccc(OCC5CC5)nc4)C3=O)ccc21 [Example 1-14, methyl 2-[(1S)-5-[(3R)-3-[[6-(cyclopropylmethoxy)-3-pyridyl]oxy]-2-oxo-pyrrolidin-1-yl]-3-oxo-indan-1-yl]acetate] | 7.72
COC(=O)C[C@H]1CC(=O)c2cc(N3CC[C@@H](Oc4ccc(OCC5CC5)nc4)C3=O)ccc21 [Example 1-15, methyl 2-[(1R)-5-[(3R)-3-[[6-(cyclopropylmethoxy)-3-pyridyl]oxy]-2-oxo-pyrrolidin-1-yl]-3-oxo-indan-1-yl]acetate] | 7.80
CN(C)C(=O)C1CC(=O)c2cc(N3CC[C@@H](Oc4ccc(OCC5CC5)nc4)C3=O)cc(F)c21 (stereo partly drawn) [Example 1-16, 5-[(3R)-3-[[6-(cyclopropylmethoxy)-3-pyridyl]oxy]-2-oxo-pyrrolidin-1-yl]-7-fluoro-N,N-dimethyl-3-oxo-indane-1-carboxamide] | 6.93
O=C1CC(CO)c2c(F)cc(N3CC[C@@H](Oc4ccc(OCC5CC5)nc4)C3=O)cc21 (stereo partly drawn) [Example 1-17, (3R)-3-[[6-(cyclopropylmethoxy)-3-pyridyl]oxy]-1-[7-fluoro-1-(hydroxymethyl)-3-oxo-indan-5-yl]pyrrolidin-2-one] | 7.14
O=C1CC(CO)c2ccc(N3CC[C@@H](Oc4ccc(OCC5CC5)nc4)C3=O)cc21 (stereo partly drawn) [Example 1-18, (3R)-3-[[6-(cyclopropylmethoxy)-3-pyridyl]oxy]-1-[1-(hydroxymethyl)-3-oxo-indan-5-yl]pyrrolidin-2-one] | 6.70
O=C(O)CC1Cc2c(F)cc(N3CC[C@@H](Oc4ccc(OCC5CC5)nc4)C3=O)cc2C1=O (stereo partly drawn) [Example 2-01, {6-[(R)-3-(6-cyclopropylmethoxy-pyridin-3-yloxy)-2-oxo-pyrrolidin-1-yl]-4-fluoro-1-oxo-indan-2-yl}-acetic acid] | 6.44
O=C(O)CC1CC(=O)c2cc(N3CC[C@@H](Oc4ccc(OCC5CC5)nc4)C3=O)ccc21 (stereo partly drawn) [Example 2-02, {5-[(R)-3-(6-Cyclopropylmethoxy-pyridin-3-yloxy)-2-oxo-pyrrolidin-1-yl]-3-oxo-indan-1-yl}-acetic acid] | 6.87
O=C(O)CC1CC(=O)c2cc(N3CC[C@@H](Oc4ccc(OCC5CC5)nc4)C3=O)cc(F)c21 (stereo partly drawn) [Example 2-03, 2-[5-[(3R)-3-[[6-(cyclopropylmethoxy)-3-pyridyl]oxy]-2-oxo-pyrrolidin-1-yl]-7-fluoro-3-oxo-indan-1-yl]acetic acid] | 6.66
O=C(O)C[C@H]1CC(=O)c2cc(N3CC[C@@H](Oc4ccc(OCC5CC5)nc4)C3=O)ccc21 [Example 2-04, 2-[5-[(3R)-3-[[6-(cyclopropylmethoxy)-3-pyridyl]oxy]-2-oxo-pyrrolidin-1-yl]-3-oxo-indan-1-yl]acetic acid] | 6.30
O=C(O)C[C@@H]1CC(=O)c2cc(N3CC[C@@H](Oc4ccc(OCC5CC5)nc4)C3=O)ccc21 [Example 2-05, 2-[(1S)-5-[(3R)-3-[[6-(cyclopropylmethoxy)-3-pyridyl]oxy]-2-oxo-pyrrolidin-1-yl]-3-oxo-indan-1-yl]acetic acid] | 5.70
CN(C)C(=O)CC1CC(=O)c2cc(N3CC[C@@H](Oc4ccc(OCC5CC5)nc4)C3=O)ccc21 (stereo partly drawn) [Example 3-01, 2-[5-[(3R)-3-[[6-(cyclopropylmethoxy)-3-pyridyl]oxy]-2-oxo-pyrrolidin-1-yl]-3-oxo-indan-1-yl]-N,N-dimethyl-acetamide] | 7.09
CNC(=O)CC1CC(=O)c2cc(N3CC[C@@H](Oc4ccc(OCC5CC5)nc4)C3=O)ccc21 (stereo partly drawn) [Example 3-02, 2-[5-[(3R)-3-[[6-(cyclopropylmethoxy)-3-pyridyl]oxy]-2-oxo-pyrrolidin-1-yl]-3-oxo-indan-1-yl]-N-methyl-acetamide] | 6.73
O=C(CC1CC(=O)c2cc(N3CC[C@@H](Oc4ccc(OCC5CC5)nc4)C3=O)ccc21)NC1CC1 (stereo partly drawn) [Example 3-03, N-cyclopropyl-2-[5-[(3R)-3-[[6-(cyclopropylmethoxy)-3-pyridyl]oxy]-2-oxo-pyrrolidin-1-yl]-3-oxo-indan-1-yl]acetamide] | 6.47
NC(=O)CC1CC(=O)c2cc(N3CC[C@@H](Oc4ccc(OCC5CC5)nc4)C3=O)ccc21 (stereo partly drawn) [Example 3-04, 2-[5-[(3R)-3-[[6-(cyclopropylmethoxy)-3-pyridyl]oxy]-2-oxo-pyrrolidin-1-yl]-3-oxo-indan-1-yl]acetamide] | 6.49
NC(=O)CC1Cc2c(F)cc(N3CC[C@@H](Oc4ccc(OCC5CC5)nc4)C3=O)cc2C1=O (stereo partly drawn) [Example 3-05, 2-[6-[(3R)-3-[[6-(cyclopropylmethoxy)-3-pyridyl]oxy]-2-oxo-pyrrolidin-1-yl]-4-fluoro-1-oxo-indan-2-yl]acetamide] | 7.11
CN(C)C(=O)CC1Cc2c(F)cc(N3CC[C@@H](Oc4ccc(OCC5CC5)nc4)C3=O)cc2C1=O (stereo partly drawn) [Example 3-06, 2-[6-[(3R)-3-[[6-(cyclopropylmethoxy)-3-pyridyl]oxy]-2-oxo-pyrrolidin-1-yl]-4-fluoro-1-oxo-indan-2-yl]-N,N-dimethyl-acetamide] | 7.34
O=C1c2cc(N3CC[C@@H](Oc4ccc(OCC5CC5)nc4)C3=O)cc(F)c2CC1CC(=O)N1CCOCC1 (stereo partly drawn) [Example 3-07, (3R)-3-[[6-(cyclopropylmethoxy)-3-pyridyl]oxy]-1-[7-fluoro-2-(2-morpholino-2-oxo-ethyl)-3-oxo-indan-5-yl]pyrrolidin-2-one] | 7.08
CNC(=O)CC1Cc2c(F)cc(N3CC[C@@H](Oc4ccc(OCC5CC5)nc4)C3=O)cc2C1=O (stereo partly drawn) [Example 3-08, 2-[6-[(3R)-3-[[6-(cyclopropylmethoxy)-3-pyridyl]oxy]-2-oxo-pyrrolidin-1-yl]-4-fluoro-1-oxo-indan-2-yl]-N-methyl-acetamide] | 7.18
O=C(CC1Cc2c(F)cc(N3CC[C@@H](Oc4ccc(OCC5CC5)nc4)C3=O)cc2C1=O)NCCO (stereo partly drawn) [Example 3-09, 2-{6-[(R)-3-(6-cyclopropylmethoxy-pyridin-3-yloxy)-2-oxo-pyrrolidin-1-yl]-4-fluoro-1-oxo-indan-2-yl}-N-(2-hydroxy-ethyl)-acetamide] | 6.54
NC(=O)CC1CC(=O)c2cc(N3CC[C@@H](Oc4ccc(OCC5CC5)nc4)C3=O)cc(F)c21 (stereo partly drawn) [Example 3-10, 2-[5-[(3R)-3-[[6-(cyclopropylmethoxy)-3-pyridyl]oxy]-2-oxo-pyrrolidin-1-yl]-7-fluoro-3-oxo-indan-1-yl]acetamide] | 7.14
CN(C)C(=O)CC1CC(=O)c2cc(N3CC[C@@H](Oc4ccc(OCC5CC5)nc4)C3=O)cc(F)c21 (stereo partly drawn) [Example 3-11, 2-[5-[(3R)-3-[[6-(cyclopropylmethoxy)-3-pyridyl]oxy]-2-oxo-pyrrolidin-1-yl]-7-fluoro-3-oxo-indan-1-yl]-N,N-dimethyl-acetamide] | 7.23
